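Cells were grown in 96-well plates and exposed to each compound for 48 hours at five concentrations; endpoints were interpolated linearly between bracketing concentrations, or set to the highest concentration if not reached. At the GI50, growth is halved.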 The source made the active and inactive calls. No stated cut-off is given here; in the data, active = GI50 up to about 1.1 µM and inactive = higher.
Experiments:
Assay in all cases: NCI tumour cell line growth inhibition, 48 h
786-0 = test system: 786-0
A498 = test system: A498
A549 = test system: A549
ACHN = test system: ACHN
CAKI-1 = test system: CAKI-1
CCRF-CEM = test system: CCRF-CEM
COLO 205 = test system: COLO 205
DLD-1 = test system: DLD-1
DMS-114 = test system: DMS-114
DMS-273 = test system: DMS-273
EKVX = test system: EKVX
HCC 2998 = test system: HCC 2998
HCT-116 = test system: HCT-116
HCT-15 = test system: HCT-15
HL-60 = test system: HL-60
HOP-18 = test system: HOP-18
HOP-62 = test system: HOP-62
HOP-92 = test system: HOP-92
HT-29 = test system: HT-29
IGROV-1 = test system: IGROV-1
K562 = test system: K562
KM-20L2 = test system: KM-20L2
KM12 = test system: KM12
LOX IMVI = test system: LOX IMVI
LXFL 529 = test system: LXFL 529
M14 = test system: M14
M19-MEL = test system: M19-MEL
MOLT-4 = test system: MOLT-4
Malme-3M = test system: Malme-3M
NCI-H226 = test system: NCI-H226
NCI-H23 = test system: NCI-H23
NCI-H460 = test system: NCI-H460
NCI-H522 = test system: NCI-H522
OVCAR-3 = test system: OVCAR-3
OVCAR-4 = test system: OVCAR-4
OVCAR-5 = test system: OVCAR-5
OVCAR-8 = test system: OVCAR-8
RXF 393 = test system: RXF 393
RXF 631 = test system: RXF 631
SF-268 = test system: SF-268
SF-295 = test system: SF-295
SF-539 = test system: SF-539
SK-MEL-28 = test system: SK-MEL-28
SK-MEL-2 = test system: SK-MEL-2
SK-MEL-5 = test system: SK-MEL-5
SK-OV-3 = test system: SK-OV-3
SN12C = test system: SN12C
SNB-19 = test system: SNB-19
SNB-75 = test system: SNB-75
SNB-78 = test system: SNB-78
SR = test system: SR
SW-620 = test system: SW-620
TK-10 = test system: TK-10
U-251 = test system: U-251
UACC-257 = test system: UACC-257
UACC-62 = test system: UACC-62
UO-31 = test system: UO-31
XF498 = test system: XF498

Measured: GI50

CC1NOC(=O)C1/N=N/c1ccc(Cl)cc1Cl (stereo not drawn)
18.5 µM: HCT-15
inactive: 786-0 18.7 µM | A498 35.3 µM | A549 23 µM | ACHN 21.4 µM | CAKI-1 24.4 µM | CCRF-CEM 30.9 µM | COLO 205 20 µM | DLD-1 33.9 µM | DMS-114 24.2 µM | DMS-273 20.9 µM | EKVX 24.6 µM | HCC 2998 29.9 µM | HCT-116 21.9 µM | HL-60 16 µM | HOP-18 18.5 µM | HOP-62 43 µM | HOP-92 19.8 µM | HT-29 32.8 µM | IGROV-1 26.9 µM | K562 25.2 µM | KM-20L2 30.6 µM | KM12 15.1 µM | LOX IMVI 27.2 µM | LXFL 529 21.9 µM | M14 21 µM | M19-MEL 27.2 µM | MOLT-4 19.6 µM | Malme-3M 25.5 µM | NCI-H226 25.4 µM | NCI-H23 20.8 µM | NCI-H460 24.7 µM | NCI-H522 17.8 µM | OVCAR-3 16.4 µM | OVCAR-4 21.6 µM | OVCAR-5 69.7 µM | OVCAR-8 31.6 µM | RXF 393 20.7 µM | RXF 631 38.2 µM | SF-268 32.2 µM | SF-295 28.8 µM | SF-539 47.4 µM | SK-MEL-28 38.9 µM | SK-MEL-2 23.8 µM | SK-MEL-5 25.8 µM | SK-OV-3 29.3 µM | SN12C 21.6 µM | SNB-19 22.6 µM | SNB-75 20.9 µM | SNB-78 26.3 µM | SR 18.7 µM | SW-620 7.98 µM | TK-10 23.8 µM | U-251 18.5 µM | UACC-257 24.5 µM | UACC-62 30.7 µM | UO-31 24.4 µM | XF498 23.1 µM

— ChEMBL document CHEMBL1201862, “PubChem BioAssay data set” (2004)
